The values below are quoted from earlier work in patent publication US20100203024A1 (priority 2006, published 2010).

Molecules are shown by their SMILES.

This data set deals with non-small-cell lung cancer. The following applies: patients with refractory disease.

As for `C#Cc1cccc(Nc2ncnc3cc(OCCOC)c(OCCOC)cc23)c1` [erlotinib], the “partial responses, percent of patients” value is recorded as 9%.
